The values that follow come from US20060110790A1, “Expression system for large functional proteins” (priority 2002, published 2006).

The target in the experiment is T1, N-half co-expressed with the K1978M C-half mutant of ABCR (Homo sapiens, UniProt P78363, K1978M).
T1 construct: The cDNAs coding for the N-half (amino acids 1-1325) and C-half (amino acids 1326-2273) of ABCR; made in house
T1 sequence (P78363 1-1325): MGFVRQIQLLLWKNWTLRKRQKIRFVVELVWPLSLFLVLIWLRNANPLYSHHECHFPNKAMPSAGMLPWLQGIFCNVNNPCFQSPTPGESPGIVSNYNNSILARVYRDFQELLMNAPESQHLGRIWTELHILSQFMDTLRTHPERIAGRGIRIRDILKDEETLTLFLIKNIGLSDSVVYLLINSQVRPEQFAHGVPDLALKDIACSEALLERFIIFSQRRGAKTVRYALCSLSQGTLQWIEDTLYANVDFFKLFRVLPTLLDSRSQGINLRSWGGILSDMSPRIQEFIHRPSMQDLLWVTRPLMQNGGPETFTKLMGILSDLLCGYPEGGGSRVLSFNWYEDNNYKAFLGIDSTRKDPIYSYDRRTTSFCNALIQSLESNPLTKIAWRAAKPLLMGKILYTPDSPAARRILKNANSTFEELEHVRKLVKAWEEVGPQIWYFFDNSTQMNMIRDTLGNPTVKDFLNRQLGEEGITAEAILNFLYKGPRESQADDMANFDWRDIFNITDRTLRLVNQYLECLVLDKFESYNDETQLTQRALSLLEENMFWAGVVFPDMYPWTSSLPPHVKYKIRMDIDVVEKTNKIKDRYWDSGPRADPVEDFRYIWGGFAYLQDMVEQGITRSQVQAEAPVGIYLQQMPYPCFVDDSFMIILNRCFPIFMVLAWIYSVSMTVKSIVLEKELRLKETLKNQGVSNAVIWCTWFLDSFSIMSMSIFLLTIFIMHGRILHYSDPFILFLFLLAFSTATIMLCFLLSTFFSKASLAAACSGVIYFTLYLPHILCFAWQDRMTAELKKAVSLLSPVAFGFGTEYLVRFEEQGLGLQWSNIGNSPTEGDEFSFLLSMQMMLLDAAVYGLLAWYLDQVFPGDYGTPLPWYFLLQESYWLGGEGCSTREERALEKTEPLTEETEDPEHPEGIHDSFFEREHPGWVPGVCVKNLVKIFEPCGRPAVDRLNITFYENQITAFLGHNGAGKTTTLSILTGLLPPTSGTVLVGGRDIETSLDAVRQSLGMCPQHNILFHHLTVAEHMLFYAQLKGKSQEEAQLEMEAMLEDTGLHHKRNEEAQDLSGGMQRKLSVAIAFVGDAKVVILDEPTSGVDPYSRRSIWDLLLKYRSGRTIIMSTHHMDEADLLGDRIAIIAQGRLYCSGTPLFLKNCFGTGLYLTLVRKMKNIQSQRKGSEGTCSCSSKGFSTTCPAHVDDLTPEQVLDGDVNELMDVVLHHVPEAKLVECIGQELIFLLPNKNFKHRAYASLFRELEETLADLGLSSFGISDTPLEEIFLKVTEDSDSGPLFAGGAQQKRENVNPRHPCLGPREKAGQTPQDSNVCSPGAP
T1 sequence (P78363 1326-2273 K1978M): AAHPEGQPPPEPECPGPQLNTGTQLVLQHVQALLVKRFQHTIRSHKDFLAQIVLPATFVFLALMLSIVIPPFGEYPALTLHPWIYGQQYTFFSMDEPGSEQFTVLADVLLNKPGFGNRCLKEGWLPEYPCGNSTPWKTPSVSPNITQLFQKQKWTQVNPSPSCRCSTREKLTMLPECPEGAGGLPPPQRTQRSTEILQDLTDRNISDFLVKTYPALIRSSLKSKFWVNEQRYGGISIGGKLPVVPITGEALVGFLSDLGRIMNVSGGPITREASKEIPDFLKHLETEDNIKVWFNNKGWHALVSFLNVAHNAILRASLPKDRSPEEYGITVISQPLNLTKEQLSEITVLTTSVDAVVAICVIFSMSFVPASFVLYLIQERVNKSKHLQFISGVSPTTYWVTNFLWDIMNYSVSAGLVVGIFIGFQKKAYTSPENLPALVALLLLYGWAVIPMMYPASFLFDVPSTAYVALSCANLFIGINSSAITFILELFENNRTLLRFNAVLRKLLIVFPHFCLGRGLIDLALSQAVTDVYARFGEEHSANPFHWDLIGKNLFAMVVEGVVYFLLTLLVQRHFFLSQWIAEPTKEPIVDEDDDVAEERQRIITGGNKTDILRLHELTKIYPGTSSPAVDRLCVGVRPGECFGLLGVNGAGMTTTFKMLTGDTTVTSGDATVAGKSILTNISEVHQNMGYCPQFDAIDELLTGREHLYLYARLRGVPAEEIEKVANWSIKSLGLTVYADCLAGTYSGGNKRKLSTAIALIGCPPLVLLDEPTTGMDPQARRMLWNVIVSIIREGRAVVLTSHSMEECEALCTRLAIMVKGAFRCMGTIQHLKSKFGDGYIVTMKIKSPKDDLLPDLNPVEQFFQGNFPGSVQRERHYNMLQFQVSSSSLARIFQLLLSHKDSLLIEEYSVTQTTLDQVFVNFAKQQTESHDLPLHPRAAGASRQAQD
Kind of experiment: ATPase activity of Walker A lysine-to-methionine mutants. The class given is biochemical. To be noted: 50 μM all-trans retinal. The protocol:
FIG. 4. Lysine to methionine Walker A mutations in ABCR abolish ATP hydrolysis but not ATP binding. A. ATPase activity was measured in the absence (white bars) or presence of 50 μM all-trans retinal (grey bars). WT, wild-type; K969M in NBD1; K1978M in NBD2; MM, K969M/K1978M double mutant; NCM, N-half co-expressed with C-half containing a K1978M mutation. B. ATP photoaffinity labeling was carried out by irradiating membranes from COS-1 cells expressing wild-type (WT), K969M, K1978M, or K969M/K1978M double mutant (MM) with 3 μM 8-azido-[α-^32P]ATp. The labeled protein was isolated with Rim3F4-Sepharose and separated on SDS gels. Left panel: gel stained with Coomassie blue. Right panel: corresponding ^32P labeling obtained with a phosphorimager. All mutant proteins were labeled with 8-azido-[α-^32P]ATP, but the double mutant bound less nucleotide.
ATPase activity was measured as described previously (Ahn, J., Wong, J. T., and Molday, R. S. (2000) J Biol Chem 275(27), 20399-405) using 50 μM [α^32P]ATP and thin layer chromatography. The all-trans retinal concentration was determined spectrophotometrically (λ383 nm=42.88 mM^−1 cm^−1). Protein concentration was estimated from the eluate before reconstitution by laser densitometry of Coomassie blue stained gels using bovine serum albumin as a standard. […]

`CC1=C(/C=C/C(C)=C/C=C/C(C)=C/C=O)C(C)(C)CCC1` [all-trans retinal]: the “retinal-stimulated ATPase activity” value was “abolished”.
